From PMC8041777, “Protein kinase A controls the hexosamine pathway by tuning the feedback inhibition of GFAT-1” (Nature Communications, 2021)

Molecular target: T1, GFAT-1 (human GFAT-1 isoform 2, hGFAT1) (Homo sapiens, UniProt Q06210)
T1 construct: gene GFPT1; full length, internal His6-tag between Gly299 and Asp300 (kept), expressed in Sf21 insect cells (MultiBac), Ni-NTA and SEC purified
Experiment: GDH-coupled amidohydrolysis assay (APADH at […] nm)
Format: biochemical
Conditions: 10 mM L-Gln, 6 mM Frc6P, 1 mM APAD, 50 mM KCl, 100 mM potassium phosphate pH 7.5, 37 °C; allosteric feedback inhibitor, isomerase domain site

T1 sequence (Q06210 2-681 isoform Q06210-2): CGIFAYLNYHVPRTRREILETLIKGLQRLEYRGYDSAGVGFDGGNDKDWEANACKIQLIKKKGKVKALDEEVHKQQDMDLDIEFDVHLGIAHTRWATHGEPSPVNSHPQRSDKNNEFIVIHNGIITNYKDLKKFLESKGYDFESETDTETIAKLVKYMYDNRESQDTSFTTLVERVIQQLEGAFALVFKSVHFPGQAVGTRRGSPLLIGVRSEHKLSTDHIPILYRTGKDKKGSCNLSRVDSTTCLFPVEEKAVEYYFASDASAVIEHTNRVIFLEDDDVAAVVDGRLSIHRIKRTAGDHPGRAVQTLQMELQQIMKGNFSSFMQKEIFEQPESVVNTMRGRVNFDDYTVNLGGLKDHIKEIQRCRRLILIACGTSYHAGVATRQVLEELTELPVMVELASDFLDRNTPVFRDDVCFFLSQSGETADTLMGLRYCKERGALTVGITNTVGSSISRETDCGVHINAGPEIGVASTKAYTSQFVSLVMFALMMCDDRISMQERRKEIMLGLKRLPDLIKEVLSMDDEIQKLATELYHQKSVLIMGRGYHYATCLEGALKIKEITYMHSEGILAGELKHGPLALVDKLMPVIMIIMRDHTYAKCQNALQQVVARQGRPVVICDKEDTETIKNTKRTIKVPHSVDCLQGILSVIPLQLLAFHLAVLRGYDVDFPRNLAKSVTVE

- IC50: 41.4 −3.5/+3.9 µM
Structure (SMILES): CC(=O)N[C@H]1[C@@H](OP(=O)(O)OP(=O)(O)OC[C@H]2O[C@@H](n3ccc(=O)[nH]c3=O)[C@H](O)[C@@H]2O)O[C@H](CO)[C@@H](O)[C@@H]1O [UDP-GlcNAc]
